A word on the Ki: it is the dissociation constant of the complex between target and ligand, obtained from inhibition or displacement. A lower Ki goes with higher affinity.

These results are taken from PMC8232704, “Hydrophobic Tagging-Mediated Degradation of Transcription Coactivator SRC-1” (International Journal of Molecular Sciences, 2021).

Bridge positions count the residues as written; N and C are the ends. Square brackets hold non-standard residues; d marks the D form. Peptide text beside a SMILES is read from it. N(1-adamantyl)Gly = O=C(O)CNC12CC3CC(CC(C3)C1)C2; Cha = N[C@@H](CC1CCCCC1)C(=O)O; S5 = C=CCCC[C@](C)(N)C(=O)O; PEG3 = NCCOCCOCCOCCC(=O)O

Data set [1] concerns the target T1, PAS-B domain of human SRC-1 (residues 257–385) (Homo sapiens, UniProt Q15788).
T1 construct: PAS-B domain of human SRC-1 (residues 257–385); His6; made in house; host or cells: Rosetta E. coli
T1 sequence (Q15788 257-385): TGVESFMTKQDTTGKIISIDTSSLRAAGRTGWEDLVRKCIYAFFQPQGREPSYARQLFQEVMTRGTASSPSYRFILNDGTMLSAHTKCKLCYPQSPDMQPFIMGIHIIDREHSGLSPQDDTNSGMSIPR
Description: Competitive fluorescence polarization (FP) assay, fluorescein-labeled STAT-6 peptide binding to SRC-1. Particulars: 100 nM fluorescein-labeled 15-mer STAT-6 peptide, 1 μM PAS-B domain of SRC-1, HEPES pH 7.4, SD from three independent experiments. Here is the method:
A plasmid expressing the PAS-B domain of human SRC-1 (residues 257–385) tagged with His6 was provided by John A. Robinson (University of Zürich at Switzerland). It was transformed into Rosetta E. coli cells. SRC-1 protein purification was performed as described previously.
After incubating 100 nM of fluorescein-labeled 15-mer STAT-6 peptide with 1 μM of PAS-B domain of SRC-1 in a binding buffer (50 mM HEPES pH 7.4, 150 mM NaCl, 3.4 mM EDTA, and 0.01% Tween 20) in a black Greiner 384-well plate for 30 min, indicated concentrations of YL2 and YL2-HyT1 through YL2-HyT6 were added to each well. After incubation for another 1.5 h, fluorescence polarization was measured on a Tecan Infinite F200 Pro microplate reader (excitation wavelength: 485 nm, emission wavelength: 535 nm). The Ki values of the compounds in the competition assay were determined using the following equation [43]. (1) Ki=[I]50/[L]50/KD+[P]0/KD+1 where [I]50 is the concentration of the free inhibitor at 50% inhibition, KD is the dissociation constant of the protein–ligand complex, [L]50 is the concentration of the free labeled ligand at 50% inhibition, and [P]0 is the concentration of the free protein at 0% inhibition.
A general note: Fluorescence polarisation rises when a labelled molecule tumbles more slowly, as on binding a larger partner.

Data set [2] in a line: Circular dichroism (CD), calculated helicity. The data set is classed as physicochemical. Particulars: 50 μM peptide in 30% PBS (pH 7.4) and 70% acetonitrile, calculated from CD spectra. As to the method: Lyophilized compounds (YL2 and YL2-HyT1 through YL2-HyT6) were dissolved in 30% PBS (pH 7.4) and 70% acetonitrile solution to a final concentration of 50 μM. CD spectra were measured with a Jasco J-815 CD spectropolarimeter using a quartz cuvette (2 mm path length). These spectra were averages of five successive accumulations with a scan rate of 100 nm/min. Raw data were converted in terms of per-residue molar ellipticity (deg·cm^2·dmol^−1·residue^−1) as calculated per mole of amide groups present and normalized by the molar concentration of peptides. Smoothing and correction of background spectra were performed with Origin Pro 8.0 (OriginLab Corporation, Northampton, MA, USA). Then α-helical propensities of YL2 and YL2-HyT1 through YL2-HyT6 were calculated as previously reported.

Data set [3] has as its system CSF-1 mRNA in MDA-MB-231 cells. Description: RT-qPCR of CSF-1 mRNA. Conditions: 18 h, RT-qPCR normalized to 18S. Format: cell-based, human. As to the method: Quantitative real-time PCR was performed for CSF-1, E-cadherin, and 18S (as a reference gene) mRNAs. MDA-MB-231 cells (1.2 × 10^5 cells/well) were seeded into a 12-well plate and incubated at 37 °C with 5% CO2 for 24 h. These cells were treated with indicated compounds (YL2, adamantane, ND1-YL2, or YL2-HyT6) for 18 h in Opti-MEM medium. After cells were washed with cold DPBS, mRNAs were isolated from these cells using an AccuPrep Universal RNA extraction kit (Bioneer, Daejeon, Korea). Then 1.5 µg of mRNAs were reverse-transcribed using AccuPower RocketScript Cycle RT PreMix (Bioneer) to generate complementary DNAs. RT-qPCR for CSF-1, E-cadherin, and 18S was performed with a StepOnePlus Real-Time PCR System (Applied Biosystems, Waltham, MA, USA) and SYBR Green mix (Applied Biosystems) according to the manufacturer’s instructions with gene-specific primers (Table 1).

In the next data set the test system is MDA-MB-231 cells. Put plainly: Gap closure migration (wound healing) assay. The data set is classed as cell-based, human. Conditions: 20 µM, 72 h. Here is the method:
MDA-MB-231 cells (2.8 × 10^4 cells/well) were seeded into Culture-Insert 2 wells (ibidi, 80209) placed in a 35 mm culture dish. After incubation at 37 °C with 5% CO2 for 24 h, Culture-Insert 2 wells were carefully removed from the culture dish with a sterilized tweezer. These cells were then treated with indicated compounds (YL2, adamantane, ND1-YL2, or YL2-HyT6) in Opti-MEM medium for 72 h. Cell images were obtained with a culture microscope (Olympus, Tokyo, Japan, CKX41). The cell-free area of the image was quantified with ImageJ software (NIH, Bethesda, MD, USA). The relative gap-closure area was calculated using the following equation: […] where A was the cell-free area. (2) Gap−Closure %=At=0 h−At=72 h/At=0 h×100

In turn, `CC(C)C[C@H](NC(=O)CCOCCOCCOCCNC(=O)CNC12CC3CC(CC(C3)C1)C2)C(=O)N[C@@H](CC(C)C)C(=O)N1CCC[C@H]1C(=O)N1CCC[C@H]1C(=O)N[C@H](C(=O)N[C@@H](CCC(=O)O)C(=O)N[C@@H](CCC(N)=O)C(=O)N[C@@H](CC(=O)O)C(=O)N[C@@H](CC(C)C)C(=O)N[C@@]1(C)CCC/C=C\CCC[C@@](C)(C(=O)N[C@@H](Cc2ccc(O)cc2)C(N)=O)NC(=O)[C@H](CC2CCCCC2)NC(=O)[C@H](CC(C)C)NC(=O)[C@H](CCCCN)NC1=O)[C@@H](C)O` [YL2-HyT6] (H-[N(1-adamantyl)Gly][PEG3]LLPPTEQDL[S5]KL[Cha][S5]Y-NH2; staple (Z) 12-16; C-terminus assumed) displayed a Ki in data set [1] of 237 nM. In addition, the “Helicity (%)” value in data set [2] is given as 32.6%. For the same compound, the “CSF-1 mRNA expression level” value in data set [3] was “dose-dependent decrease in CSF-1”. For the same compound, in the data set with MDA-MB-231 cells, the “Wound gap closure (cell migration)” value is recorded as “significantly inhibited gap closing”.
